According to patent publication US20200102295A1, “NITROCATECHOL DERIVATIVES AS COMT INHIBITORS” (BIAL - PORTELA & CA, S.A., priority 2005, published 2020):

Columns and labels:
mouse liver COMT = biological target: T1, mouse liver COMT (Mus musculus, UniProt O88587); experiment: Mouse liver COMT activity after oral administration of test compounds; type: in vivo; settings: 3 mg/kg oral, 3 h after administration
T1 construct: Aliquots of 0.5 ml of liver homogenates were preincubated; from tissue; host or cells: mouse liver homogenate (NMRI mice, dosed orally; ex vivo activity)
T1 sequence (O88587 1-265): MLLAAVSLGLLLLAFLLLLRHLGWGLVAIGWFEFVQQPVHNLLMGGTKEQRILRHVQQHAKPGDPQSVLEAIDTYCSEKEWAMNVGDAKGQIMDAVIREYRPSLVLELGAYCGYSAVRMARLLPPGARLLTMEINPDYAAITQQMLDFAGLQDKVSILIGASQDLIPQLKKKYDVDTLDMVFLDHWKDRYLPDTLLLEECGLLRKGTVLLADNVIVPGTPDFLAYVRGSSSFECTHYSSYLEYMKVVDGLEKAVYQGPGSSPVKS

[1] = test system: Neuro 2A mouse neuroblastoma cells; experiment: Cell toxicity: Neuro 2A cell viability (calcein-AM); type: cell-based; settings: Neuro 2A cells, 30 μM, 24 h exposure
rat liver COMT = biological target: T2, rat liver COMT (Rattus norvegicus, UniProt P22734); experiment: Rat liver COMT activity after oral administration of test compounds; type: in vivo; settings: for Rat Liver COMT activity (% control): 3 mg/kg oral
T2 construct: the organs were immediately removed and homogenised in 5 mM phosphate buffer of pH 7.8; from tissue; host or cells: rat liver homogenate (Wistar rats, dosed orally; ex vivo activity)
T2 sequence (P22734 1-264): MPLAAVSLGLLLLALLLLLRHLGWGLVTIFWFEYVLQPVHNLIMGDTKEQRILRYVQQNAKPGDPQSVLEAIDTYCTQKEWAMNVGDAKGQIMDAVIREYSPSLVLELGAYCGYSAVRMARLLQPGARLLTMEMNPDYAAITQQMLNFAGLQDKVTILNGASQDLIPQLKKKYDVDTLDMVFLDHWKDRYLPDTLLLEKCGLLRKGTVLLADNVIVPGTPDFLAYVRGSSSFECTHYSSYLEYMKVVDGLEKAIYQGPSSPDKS

[2] = test system: plasma levels of L-DOPA and 3-O-methyl-L-DOPA (3-OMD); experiment: Levels of L-DOPA and 3-O-methyl-L-DOPA in plasma of rats treated with L-DOPA plus benserazide; type: in vivo, rat; settings: 3 mg/kg oral, 2 h after administration

For `Cc1ccc(C(=O)c2cc(O)c(O)c([N+](=O)[O-])c2)cc1` [Tolcapone, 3,4-dihydroxy-4′ -methyl-5-nitrobenzophenone, reference compound], the “COMT activity (% of control)” value (mouse liver COMT) was 13.9 % of control, the “% of viable cells” value [1] was 27.2% and the “Rat Liver COMT activity (% control)” value (rat liver COMT; 1 h after administration) was 18.3 % control. For the same compound, the “Rat Liver COMT activity (% control)” value (rat liver COMT; 3 h after administration) was 28.6 % control, the “Rat Liver COMT activity (% control)” value (rat liver COMT; 6 h after administration) was 56.8 % control and the “Rat Liver COMT activity (% control)” value (rat liver COMT; 9 h after administration) was 83.9 % control. The inhibition at 3 mg/kg (rat liver COMT; rat, po, read-out: COMT inhibition nine hours after administration) was roughly 16%, the “L-DOPA % increase (plasma level, % control)” value ([2]; L-DOPA plus benserazide 1 h before plasma collection) was 202.4% and the “3-OMD % reduction (plasma level, % control)” value ([2]; L-DOPA plus benserazide 1 h before plasma collection, given with minus sign) was −89.0%. It also gave a L-Dopa/3-OMD ([2]; plasma ratio) of 27.6.
